Test results as given in patent US12337003B2, “Pharmaceutical compositions for combination therapy” (Intercept Pharmaceuticals, Inc., priority 2015, dated 2025).

Key:
[1] = system: rat aortic smooth muscle cell; conditions: Li 2007; cited from earlier work
[2] = system: APOE*3Leiden.CETP transgenic mice on high fat diet; assay: Diet induced NASH in APOE*3Leiden.CETP mice, hepatic inflammation score; type: in vivo
Experimental: This experiment was performed to evaluate the effects of OCA and fenofibrate, alone or in combination, on the development of diet induced NASH and liver fibrosis in APOE*3Leiden.CETP transgenic mice. Hepatic gene expression profiling and subsequent pathway analysis were performed to determine whether the combination regulates novel genes not regulated by either monotherapy treatment, and/or more strongly regulates genes also impacted by the monotherapy.
Male APOE*3Leiden.CETP transgenic mice (9-21 weeks old) were obtained and housed 2-5 mice per cage. The mice were fed a high fat diet containing 24% lard and 1% (w/w) cholesterol. The run in period was 15 weeks on the high fat diet. At week 16, mice were matched based on age, body weight, plasma cholesterol and triglycerides after 4 h fasting.
• Mice (n=15) were fed a high fat diet during the run in weeks 0 to 14. Group 2: HFC control group • Mice (n=15) were fed a high fat diet from weeks 0 to 24. Group 3: HFC+OCA • Mice (n=15) were fed a high fat diet supplemented with OCA at a dose of 10 mg/kg once daily from week 16 to 24. Group 4: HFC+low dose fenofibrate • Mice (n=15) were fed a high fat diet supplemented with fenofibrate at a dose of 10 mg/kg once daily from week 16 to 24. Group 5: HFC+high dose fenofibrate • Mice (n=15) were fed a high fat diet supplemented with fenofibrate at a dose of 40 mg/kg once daily from week 16 to 24. Group 6: HFC+OCA+low dose fenofibrate • Mice (n=15) were fed a high fat diet supplemented with OCA at a dose of 10 mg/kg once daily and fenofibrate at a dose of 10 mg/kg once daily from week 16 to 24. Group 7: HFC+OCA+high dose fenofibrate • Mice (n=15) were fed a high fat diet supplemented with OCA at a dose of 10 mg/kg once daily and fenofibrate at a dose of 40 mg/kg once daily from week 16 to 24. Group 8: Chow control group • Mice (n=8) were feed chow from week 0 to 24. Study Design
Mice were fed a high fat chow (HFC) diet for […]. After 15 weeks on the HFC diet, HFC mice were matched into 7 groups based on age, body weight, plasma cholesterol and triglycerides after 4 h fasting. Mice were treated with of OCA and fenofibrate, alone or in combination beginning at week 15 and sacrificed at week 25 in an unfasted state. One week before sacrifice, mice were labeled with D20, by i.p. injection of a bolus of D20 and subsequent addition of 4% D20 to the drinking water. Plasma (EDTA) was obtained by heart puncture and stored at −70° C. The liver was weighed and 4 pieces of liver were isolated: 1 piece (medial lobe) was fixed in 10% formalin (for NASH and fibrosis histology) and 3 pieces (sinister lobe) were snap-frozen in liquid N2 and stored individually at −70° C.
Inflammation is a key feature of NASH. Inflammation was categorized according to the procedure by Liang et al., PlosOne 2014 Dec. 9(12) and scored by quantitatively analyzing the number of inflammatory cells aggregates. In particular, the level of inflammation was evaluated by counting the number of inflammatory foci per field using a 100× magnification (view size of 3.1 mm2; average of five different fields).

[3] = system: kidney of a rat model of Type 1 diabetes; conditions: rat model of Type 1 diabetes (Wang 2010); cited from earlier work
[4] = system: intestinal tissue of two animal models of inflammatory bowel disease (DSS and trinitrobenzene sulfonic acid); conditions: DSS and trinitrobenzene sulfonic acid models (Gadaleta 2011); cited from earlier work
[5] = system: fibrosis induced by common bile duct ligation in mice; assay: Bile duct ligation (BDL) model, Sirius-red staining of liver sections; type: in vivo, C57BL/6 mice; conditions: mean ± SD, OCA 5 mg/kg and/or atorvastatin 10 mg/kg orally once daily day 0 to day 6
Experimental: This experiment was performed to evaluate the effects of OCA and atorvastatin alone, and in combination, on fibrosis induced by common bile duct ligation in mice.
Male C57BL/6 mice (6 weeks of age) were obtained from Japan SLC. The animals were maintained in a specific pathogen free facility under controlled conditions of temperature (23±2° C.), humidity (45±10%), lighting (12-hour artificial light and dark cycles; light from 8:00 to 20:00), and air exchange (air exchange rate: more than 40 times/hour). A high pressure (20±4 Pa) was maintained in the experimental room to prevent contamination of the facility. The animals were housed in KN-600 (Natsume Seisakusho, Japan) with a maximum of 6 mice per cage. […]
Viability, clinical signs and behavior were monitored daily. Body weight was recorded daily during the treatment period. Food consumption was measured twice weekly per cage during the treatment period. […]
To visualize collagen deposition, Bouin's-fixed left lateral liver sections were stained using picro-Sirius red solution (Waldeck, Germany). For quantitative analysis of the fibrosis area, bright field images of Sirius red-stained sections were captured around the central vein using a digital camera (DFC295; Leica, Germany) at 100-fold magnification, and the positive areas in 5 fields/section were measured using ImageJ software (National Institute of Health, USA). […]

CC[C@H]1[C@@H](O)[C@@H]2[C@H](CC[C@]3(C)[C@@H]([C@H](C)CCC(=O)O)CC[C@@H]23)[C@@]2(C)CC[C@@H](O)C[C@@H]12 [OCA, 3α,7α-dihydroxy-6α-ethyl-5β-cholan-24-oic acid]
pharmacologically-induced rat aortic smooth muscle cell migration [1]: abolished
production of iNOS or COX-2 induced by IL-1β [1]: inhibited
Inflammation (# of inflammatory cell foci) ([2]; OCA 10 mg/kg and/or low dose fenofibrate 10 mg/kg, in high fat diet): 29.1 ± 22.7
effect on number of inflammatory cell foci ([2]; after 10 weeks, OCA 10 mg/kg and/or fenofibrate 10 mg/kg, relative to vehicle control): neither OCA (10 mg/kg) nor fenofibrate (10 mg/kg) reduced
inflammatory infiltrates in kidney [3]: inhibition of inflammatory infiltrates
inflammatory infiltrates in intestinal tissue [4]: inhibition of inflammatory infiltrates
Sirius red-positive area (%) [5]: 2.06 ± 0.37%
